Measured values published in publication PMC8566257 (Plant Physiology, 2021).

Assays:
Assay in all cases: pull-down of COI1-flag on MBP-JAZ, immunoblot
Format in all cases: binding
Conditions in all cases: 0.5 μM COR; inducer of complex (agonist)
[1] = target: T1, AtCOI1-flag/AtJAZ2-MBP with ASK1 (Arabidopsis thaliana, UniProt O04197+Q9S7M2)
T1 sequence (O04197 1-592): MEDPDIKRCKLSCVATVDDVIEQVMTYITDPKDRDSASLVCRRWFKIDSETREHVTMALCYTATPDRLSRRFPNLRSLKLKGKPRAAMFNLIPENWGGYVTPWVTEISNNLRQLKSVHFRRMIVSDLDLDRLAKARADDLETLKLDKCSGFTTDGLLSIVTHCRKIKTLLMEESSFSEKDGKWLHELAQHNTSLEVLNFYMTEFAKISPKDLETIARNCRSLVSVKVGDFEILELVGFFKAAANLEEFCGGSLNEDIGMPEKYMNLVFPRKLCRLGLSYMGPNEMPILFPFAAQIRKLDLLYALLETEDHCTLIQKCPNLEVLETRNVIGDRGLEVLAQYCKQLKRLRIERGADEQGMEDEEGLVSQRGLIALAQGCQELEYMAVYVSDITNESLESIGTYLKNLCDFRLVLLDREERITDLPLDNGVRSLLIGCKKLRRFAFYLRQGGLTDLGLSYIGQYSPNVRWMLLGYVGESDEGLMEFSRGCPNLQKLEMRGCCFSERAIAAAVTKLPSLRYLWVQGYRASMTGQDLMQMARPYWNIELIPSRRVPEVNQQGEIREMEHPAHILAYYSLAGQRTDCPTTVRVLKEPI
T1 sequence (Q9S7M2 1-249): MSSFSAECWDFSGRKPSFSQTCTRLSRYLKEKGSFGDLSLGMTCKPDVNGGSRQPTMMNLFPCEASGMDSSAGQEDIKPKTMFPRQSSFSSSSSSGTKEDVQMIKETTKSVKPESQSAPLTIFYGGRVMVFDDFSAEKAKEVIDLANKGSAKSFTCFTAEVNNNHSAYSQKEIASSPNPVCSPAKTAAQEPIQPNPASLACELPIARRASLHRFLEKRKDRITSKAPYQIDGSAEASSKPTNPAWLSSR
T1 sequence (Q39255 1-160 partner): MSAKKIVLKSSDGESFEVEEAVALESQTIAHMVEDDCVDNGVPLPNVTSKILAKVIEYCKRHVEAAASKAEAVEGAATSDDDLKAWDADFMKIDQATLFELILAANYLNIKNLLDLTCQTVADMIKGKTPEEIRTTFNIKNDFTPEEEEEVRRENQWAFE

[2] = target: T2, AtCOI1-flag/AtJAZ9-MBP with ASK1 (Arabidopsis thaliana, UniProt O04197+Q8W4J8)
T2 sequence (O04197 1-592): T1 sequence (O04197 1-592)
T2 sequence (Q8W4J8 1-267): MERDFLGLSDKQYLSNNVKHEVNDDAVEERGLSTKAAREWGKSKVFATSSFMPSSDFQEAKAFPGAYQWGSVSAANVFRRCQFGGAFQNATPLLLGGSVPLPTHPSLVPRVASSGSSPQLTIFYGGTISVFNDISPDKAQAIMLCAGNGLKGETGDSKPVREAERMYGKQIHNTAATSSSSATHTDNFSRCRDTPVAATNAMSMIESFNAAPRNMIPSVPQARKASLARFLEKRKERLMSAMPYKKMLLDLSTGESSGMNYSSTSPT
T2 sequence (Q39255 1-160 partner): T1 sequence (Q39255 1-160 partner)

[3] = target: T3, AtCOI1-flag/AtJAZ1-MBP with ASK1 (Arabidopsis thaliana, UniProt O04197+Q9LMA8)
T3 sequence (O04197 1-592): T1 sequence (O04197 1-592)
T3 sequence (Q9LMA8 1-253): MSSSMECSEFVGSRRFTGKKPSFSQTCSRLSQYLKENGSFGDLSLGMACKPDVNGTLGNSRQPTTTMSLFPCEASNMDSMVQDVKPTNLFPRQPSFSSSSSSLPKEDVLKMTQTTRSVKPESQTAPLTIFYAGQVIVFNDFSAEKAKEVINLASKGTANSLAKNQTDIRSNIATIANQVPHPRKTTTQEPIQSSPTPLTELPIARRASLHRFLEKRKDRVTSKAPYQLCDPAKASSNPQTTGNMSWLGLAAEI
T3 sequence (Q39255 1-160 partner): T1 sequence (Q39255 1-160 partner)

[4] = target: T4, AtCOI1-flag/AtJAZ3-MBP with ASK1 (Arabidopsis thaliana, UniProt O04197+Q9LVI4)
T4 sequence (O04197 1-592): T1 sequence (O04197 1-592)
T4 sequence (Q9LVI4 1-352): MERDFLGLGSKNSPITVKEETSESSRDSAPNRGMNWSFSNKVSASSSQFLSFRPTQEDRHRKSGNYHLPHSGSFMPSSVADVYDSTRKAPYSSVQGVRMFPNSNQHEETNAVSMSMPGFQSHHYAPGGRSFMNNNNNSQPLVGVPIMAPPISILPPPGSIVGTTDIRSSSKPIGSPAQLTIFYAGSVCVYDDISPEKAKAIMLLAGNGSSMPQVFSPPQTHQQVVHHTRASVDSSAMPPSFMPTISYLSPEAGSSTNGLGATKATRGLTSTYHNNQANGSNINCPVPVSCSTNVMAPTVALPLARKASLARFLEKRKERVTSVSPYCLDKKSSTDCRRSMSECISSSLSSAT
T4 sequence (Q39255 1-160 partner): T1 sequence (Q39255 1-160 partner)

Q: `CC[C@H]1C=C(C(=O)N[C@@]2(C(=O)O)C[C@@H]2CC)[C@H]2CCC(=O)[C@H]2C1` [COR] was tested. Which “pull-down of COI1-flag on MBP-JAZ, immunoblot” value (shortened to “pull-down of COI1-flag”) [1] did it give?
A: COR promotes the interaction between the purified COI1 and several recombinant JAZ-MBP proteins

Q: And the “pull-down of COI1-flag” value [2]?
A: COR promotes the interaction between the purified COI1 and several recombinant JAZ-MBP proteins

Q: And the “pull-down of COI1-flag” value [3]?
A: COR promotes the interaction between the purified COI1 and several recombinant JAZ-MBP proteins

Q: And the “pull-down of COI1-flag” value [4]?
A: COR promotes the interaction between the purified COI1 and several recombinant JAZ-MBP proteins
